Source: patent publication US9073974B2, “RGD-containing cyclic peptides” (The Regents of the University of California, priority 2009, dated 2015)
Numbered stars: 1 amine (or outer) side, 2 acyl side, 3 side chain; on linkers, the order of the positions; unused ones are H or OH. Bridge positions count the residues as written; N and C are the ends. Square brackets hold non-standard residues; d marks the D form. Peptide text beside a SMILES is read from it. * marks the point of attachment. Benzoyl(4-NO2) = O=C(c1ccc([N+](=O)[O-])cc1)*; Pro(5R-Ph) = O=C(O)[C@@H]1CC[C@H](c2ccccc2)N1; Benzoyl(3,5-(OH)2) = O=C(c1cc(O)cc(O)c1)*; Phenylacetyl(4-Cl) = O=C(Cc1ccc(Cl)cc1)*; N(CH2CH2COOH)Gly = O=C(O)CCNCC(=O)O; dBta = N[C@H](Cc1csc2ccccc12)C(=O)O; X2 = O=C(C1(N[*:1])CCC(O)CC1)[*:2]; NMeR = CN[C@@H](CCCNC(=N)N)C(=O)O; dCit = NC(=O)NCCC[C@@H](N)C(=O)O; hArg = N=C(N)NCCCC[C@H](N)C(=O)O; NMeD = CN[C@@H](CC(=O)O)C(=O)O; dPen = CC(C)(S)[C@@H](N)C(=O)O; dTle = CC(C)(C)[C@@H](N)C(=O)O; Nicotinoyl = O=C(c1cccnc1)*; Carboxymethyl = O=C(O)C*; Isobutyryl = CC(C)C(=O)*; X3 = Cc1nc(C(=O)*)cs1; βAla = NCCC(=O)O; Sar = CNCC(=O)O

Target: αvβ3 integrin (Homo sapiens, UniProt P05106+P06756)
Assay: Inhibition of biotinylated LXW7 binding to αvβ3-K562 cells (flow cytometry)
Design: expressed in transfected cells; host or cells: K562 (gift of Dr. Yoshikazu Takada, UC Davis)
Conditions: LXW9-92: inhibiting the binding of biotinylated LXW7 against αvβ3-K562 cells, LXW7 as internal reference
Experimental: The apparent IC50 were calculated using Graph Prism software (≦www.graphpad.com≧).
The samples were analyzed with Coulter XL-MCL flow cytometry. The histogram and mean fluorescence intensity (MFI) were determined. The apparent Kd, IC50 were calculated using Graph Prism software (≦www.graphpad.com≧).

Sequence of αvβ3 integrin (P06756 31-889 limits assumed): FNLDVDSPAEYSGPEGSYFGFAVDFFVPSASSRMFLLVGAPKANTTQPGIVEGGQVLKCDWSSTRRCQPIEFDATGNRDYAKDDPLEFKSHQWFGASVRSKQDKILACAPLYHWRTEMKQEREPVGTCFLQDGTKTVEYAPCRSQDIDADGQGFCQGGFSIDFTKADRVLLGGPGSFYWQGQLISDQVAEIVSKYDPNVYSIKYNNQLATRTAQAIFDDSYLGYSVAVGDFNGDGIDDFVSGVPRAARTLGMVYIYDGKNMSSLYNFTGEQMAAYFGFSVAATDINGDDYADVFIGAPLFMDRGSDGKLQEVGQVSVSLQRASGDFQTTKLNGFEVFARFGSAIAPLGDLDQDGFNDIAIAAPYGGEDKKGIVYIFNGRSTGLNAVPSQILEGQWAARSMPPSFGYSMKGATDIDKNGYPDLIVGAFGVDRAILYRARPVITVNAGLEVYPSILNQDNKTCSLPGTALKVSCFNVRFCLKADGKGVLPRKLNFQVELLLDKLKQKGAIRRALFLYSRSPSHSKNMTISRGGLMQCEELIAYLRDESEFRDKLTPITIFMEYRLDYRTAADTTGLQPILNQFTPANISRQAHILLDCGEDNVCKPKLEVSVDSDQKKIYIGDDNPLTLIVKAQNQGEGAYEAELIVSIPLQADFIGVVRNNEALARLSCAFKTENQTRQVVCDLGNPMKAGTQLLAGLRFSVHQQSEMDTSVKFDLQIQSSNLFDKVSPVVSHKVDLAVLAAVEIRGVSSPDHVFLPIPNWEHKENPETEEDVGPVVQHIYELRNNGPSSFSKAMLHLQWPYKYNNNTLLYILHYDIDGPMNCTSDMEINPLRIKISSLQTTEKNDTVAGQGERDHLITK
Sequence of αvβ3 integrin (P06756 891-1048 partner limits assumed): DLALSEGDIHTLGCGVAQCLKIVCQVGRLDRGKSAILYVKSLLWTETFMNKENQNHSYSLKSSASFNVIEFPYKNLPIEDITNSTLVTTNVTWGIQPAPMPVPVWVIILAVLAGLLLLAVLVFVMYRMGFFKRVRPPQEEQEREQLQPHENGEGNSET
Sequence of αvβ3 integrin (P05106 27-788): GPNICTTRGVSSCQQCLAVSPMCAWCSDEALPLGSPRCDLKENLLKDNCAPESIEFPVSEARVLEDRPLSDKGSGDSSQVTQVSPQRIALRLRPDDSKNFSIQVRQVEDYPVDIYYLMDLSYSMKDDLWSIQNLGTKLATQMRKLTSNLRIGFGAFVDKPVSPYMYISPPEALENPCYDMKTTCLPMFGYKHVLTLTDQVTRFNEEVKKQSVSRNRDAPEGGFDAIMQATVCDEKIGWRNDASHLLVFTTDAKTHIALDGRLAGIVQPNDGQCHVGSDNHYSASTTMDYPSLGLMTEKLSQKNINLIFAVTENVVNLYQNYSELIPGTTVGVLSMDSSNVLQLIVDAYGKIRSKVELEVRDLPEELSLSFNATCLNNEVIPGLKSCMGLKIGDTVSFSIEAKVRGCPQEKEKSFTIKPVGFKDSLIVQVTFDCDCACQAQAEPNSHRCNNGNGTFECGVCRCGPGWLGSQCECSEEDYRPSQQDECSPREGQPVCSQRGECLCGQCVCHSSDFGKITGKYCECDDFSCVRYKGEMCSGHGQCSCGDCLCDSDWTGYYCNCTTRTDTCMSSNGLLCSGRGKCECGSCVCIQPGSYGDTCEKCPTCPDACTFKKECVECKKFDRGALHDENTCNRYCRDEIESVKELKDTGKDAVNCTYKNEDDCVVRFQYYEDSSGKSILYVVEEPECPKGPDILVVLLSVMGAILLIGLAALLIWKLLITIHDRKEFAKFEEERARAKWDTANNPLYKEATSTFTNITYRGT

| Structure (SMILES) | IC50 [µM] |
| --- | --- |
| CN1CC(=O)N[C@@H](CCCNC(=N)N)C(=O)NCC(=O)N[C@@H](CC(=O)O)C(=O)N[C@@H](Cc2ccc(OCC(=O)O)cc2)C(=O)N[C@H](CC(=O)O)C(=O)N[C@H](C(N)=O)CSSC[C@H](N)C1=O [LXW44, C-Sar-RGD-Bmp-dC] (H-C[Sar]RGDY(Carboxymethyl)[dD]C-NH2; disulfide 1-8) | > 20 |
| CN1CC(=O)N[C@@H](CCCNC(=N)N)C(=O)NCC(=O)N[C@@H](CC(=O)O)C(=O)N[C@H](CC(=O)O)C(=O)NC2(CCOCC2)C(=O)N[C@H](C(N)=O)CSSC[C@H](N)C1=O [LXW36, C-Sar-RGDd-Actp-C] | > 20 |
| N=C(N)NCCC[C@@H]1NC(=O)CNC(=O)[C@H](N)CSSC[C@@H](C(N)=O)NC(=O)C2(CCOCC2)NC(=O)[C@@H](CC(=O)O)NC(=O)[C@H](CC(=O)O)NC(=O)CNC1=O [LXW41, cGRGDd-Actp-C] | > 20 |
| N=C(N)NCCC[C@@H]1NC(=O)CNC(=O)[C@@H](N)CSSC[C@H](C(N)=O)NC(=O)[C@@H]2CC[C@H](c3ccccc3)N2C(=O)CN(CCC(=O)O)C(=O)[C@H](CC(=O)O)NC(=O)CNC1=O [LXW46, CGRGD-Nglu-Ppca-c] (H-CGRGD[N(CH2CH2COOH)Gly][Pro(5R-Ph)][dC]-NH2; disulfide 1-8) | > 20 |
| CC(C)[C@H]1NC(=O)[C@@H](CC(=O)O)NC(=O)[C@H](CC(=O)O)N(C)C(=O)CNC(=O)[C@H](CCCNC(=N)N)NC(=O)CNC(=O)[C@H](N)CSSC[C@H](C(N)=O)NC1=O [LXW55, cGRG-(NMe)Asp-dvc] (H-[dC]GRG[NMeD][dD][dV][dC]-NH2; disulfide 1-8) | > 20 |
| CC[C@@H](C)[C@H]1NC(=O)C2(CCC(O)CC2)NC(=O)[C@H](CC(=O)O)NC(=O)CNC(=O)[C@H](CCCNC(=N)N)NC(=O)CN(C)C(=O)[C@H](N)CSSC[C@H](C(N)=O)NC1=O (stereo partly shown) [LXW32, c-Sar-RGD-Ahch-i c] (H-[dC][Sar]RGD[X2][dI][dC]-NH2; disulfide 1-8) | > 20 |
| CN1CC(=O)N[C@@H](CCCNC(=N)N)C(=O)NCC(=O)N[C@@H](CC(=O)O)C(=O)NC2(CCC(O)CC2)C(=O)N[C@H](C(C)(C)C)C(=O)N[C@@H](C(N)=O)CSSC[C@@H](N)C1=O (stereo partly shown) [LXW33, c-Sar-RGD-Ahch-DBug-c] (H-[dC][Sar]RGD[X2][dTle][dC]-NH2; disulfide 1-8) | > 20 |

The remaining lines, values ahead:

| IC50 [µM] | Structure (SMILES) |
| --- | --- |
| > 20 | CC(C)[C@H]1NC(=O)[C@@H](CC(=O)O)NC(=O)[C@H](CC(=O)O)NC(=O)CNC(=O)[C@H](CCCCNC(=N)N)NC(=O)CNC(=O)[C@H](N)CSSC[C@H](C(N)=O)NC1=O [LXW51, cG-HoArg-GDdvc] (H-[dC]G[hArg]GD[dD][dV][dC]-NH2; disulfide 1-8) |
| > 20 | CC(C)[C@H]1NC(=O)[C@@H](CC(=O)O)NC(=O)[C@H](CC(=O)O)NC(=O)CN(C)C(=O)[C@H](CCCNC(=N)N)NC(=O)CNC(=O)[C@H](N)CSSC[C@H](C(N)=O)NC1=O [LXW54, cGR-Sar-Ddvc] (H-[dC]GR[Sar]D[dD][dV][dC]-NH2; disulfide 1-8) |

Same assay, conditions: LXW9-92: inhibiting the binding of biotinylated LXW7 against αvβ3-K562 cells; class symbols

| Structure (SMILES) | IC50 [µM] |
| --- | --- |
| CC(C)[C@H]1NC(=O)[C@@H](CC(=O)O)NC(=O)[C@H](CC(=O)O)NC(=O)CNC(=O)[C@H](CCCNC(=N)N)NC(=O)CNC(=O)[C@H](N)C(C)(C)SSC[C@H](C(N)=O)NC1=O [LXW20, DPen-GRGDdvc] (H-[dPen]GRGD[dD][dV][dC]-NH2; disulfide 1-8) | 1 to 10 |
| CC(C)[C@H]1NC(=O)[C@@H](CC(=O)O)NC(=O)[C@H](CC(=O)O)NC(=O)CNC(=O)[C@H](CCCNC(=N)N)NC(=O)CNC(=O)[C@H](NC(=O)c2cc(O)cc(O)c2)CSSC[C@H](C(N)=O)NC1=O [LXW83, 3,5-dihydroxy beznoyl-cGRGDdvc] ({Benzoyl(3,5-(OH)2)}-[dC]GRGD[dD][dV][dC]-NH2; disulfide 1-8) | < 1 |
| CC(C)[C@H]1NC(=O)[C@@H](CC(=O)O)NC(=O)[C@H](CC(=O)O)NC(=O)CNC(=O)[C@H](CCCNC(=N)N)NC(=O)CNC(=O)[C@H](NC(=O)CCN)CSSC[C@H](C(N)=O)NC1=O [LXW56, 3-amino propanoyl-cGRGDdvc] (H-[βAla][dC]GRGD[dD][dV][dC]-NH2; disulfide 2-9) | < 1 |
| Cc1nc(C(=O)N[C@@H]2CSSC[C@H](C(N)=O)NC(=O)[C@@H](C(C)C)NC(=O)[C@@H](CC(=O)O)NC(=O)[C@H](CC(=O)O)NC(=O)CNC(=O)[C@H](CCCNC(=N)N)NC(=O)CNC2=O)cs1 [LXW86, 2-Methylthiazole-4-carbonyl-cGRGDdvc] (X3-[dC]GRGD[dD][dV][dC]-NH2; disulfide 1-8) | < 1 |
| CC(C)[C@H]1NC(=O)[C@@H](CC(=O)O)NC(=O)[C@H](CC(=O)O)NC(=O)CNC(=O)[C@H](CCCNC(=N)N)NC(=O)CNC(=O)[C@H](NC(=O)c2ccc([N+](=O)[O-])cc2)CSSC[C@H](C(N)=O)NC1=O [LXW82, 4-nitrobezoyl-cGRGDdvc] ({Benzoyl(4-NO2)}-[dC]GRGD[dD][dV][dC]-NH2; disulfide 1-8) | 1 to 10 |
| N=C(N)NCCC[C@@H]1NC(=O)CNC(=O)[C@H](N)CSSC[C@H](C(N)=O)NC(=O)[C@@H](Cc2csc3ccccc23)NC(=O)[C@@H](CCCNC(N)=O)NC(=O)[C@H](CC(=O)O)NC(=O)CNC1=O [LXW73, cGRGD-DCit-DBta-c] (H-[dC]GRGD[dCit][dBta][dC]-NH2; disulfide 1-8) | 1 to 10 |
| CC(C)[C@H]1NC(=O)[C@@H](CC(=O)O)NC(=O)[C@H](CC(=O)O)NC(=O)CNC(=O)[C@H](CCCNC(=N)N)NC(=O)CNC(=O)[C@H](NC(=O)c2cccnc2)CSSC[C@H](C(N)=O)NC1=O [LXW92, nicotinyl-cGRGDdvc] (Nicotinoyl-[dC]GRGD[dD][dV][dC]-NH2; disulfide 1-8) | 1 to 10 |
| CC(C)[C@H]1NC(=O)[C@@H](CC(=O)O)NC(=O)[C@H](CC(=O)O)NC(=O)CNC(=O)[C@H](CCCNC(=N)N)NC(=O)CNC(=O)[C@H](N)CSSC(C)(C)[C@H](C(N)=O)NC1=O [LXW21, cGRGDdv-DPen] (H-[dC]GRGD[dD][dV][dPen]-NH2; disulfide 1-8) | 1 to 10 |
| CC(C)[C@H]1NC(=O)[C@@H](CC(=O)O)NC(=O)[C@H](CC(=O)O)NC(=O)CNC(=O)[C@H](CCCNC(=N)N)NC(=O)CNC(=O)[C@H](NC(=O)Cc2ccc(Cl)cc2)CSSC[C@H](C(N)=O)NC1=O [LXW81, p-chlorophenyl acetyl-cGRGDdvc] ({Phenylacetyl(4-Cl)}-[dC]GRGD[dD][dV][dC]-NH2; disulfide 1-8) | 1 to 10 |
| CC(C)C(=O)N[C@@H]1CSSC[C@H](C(N)=O)NC(=O)[C@@H](C(C)C)NC(=O)[C@@H](CC(=O)O)NC(=O)[C@H](CC(=O)O)NC(=O)CNC(=O)[C@H](CCCNC(=N)N)NC(=O)CNC1=O [LXW76, isobutyryl-cGRGDdvc] (Isobutyryl-[dC]GRGD[dD][dV][dC]-NH2; disulfide 1-8) | < 1 |
| CC(C)[C@H]1NC(=O)[C@@H](CC(=O)O)NC(=O)[C@H](CC(=O)O)NC(=O)CNC(=O)[C@H](CCCNC(=N)N)N(C)C(=O)CNC(=O)[C@H](N)CSSC[C@H](C(N)=O)NC1=O [LXW53, cG-(NMe)Arg-GDdvc] (H-[dC]G[NMeR]GD[dD][dV][dC]-NH2; disulfide 1-8) | < 1 |
| N=C(N)NCCC[C@@H]1NC(=O)CNC(=O)[C@H](N)CSSC[C@H](C(N)=O)NC(=O)[C@@H](Cc2ccc3ccccc3c2)NC(=O)[C@@H](CC(=O)O)NC(=O)[C@H](CC(=O)O)NC(=O)CNC1=O [LXW65, cGRGDd-DNal2-c] | < 1 |
| N=C(N)NCCC[C@@H]1NC(=O)CNC(=O)[C@H](N)CSSC[C@H](C(N)=O)NC(=O)[C@@H](Cc2cccc3ccccc23)NC(=O)[C@@H](CC(=O)O)NC(=O)[C@H](CC(=O)O)NC(=O)CNC1=O [LXW64, cGRGDd-DNal1-c] | < 1 |

Next, values leading:

| IC50 [µM] | Structure (SMILES) |
| --- | --- |
| > 10 | N=C(N)NCCC[C@@H]1NC(=O)CNC(=O)[C@H](N)CSSC[C@@H](C(N)=O)NC(=O)[C@@H](CC(=O)O)NC(=O)[C@@H](CO)NC(=O)[C@H](CC(=O)O)NC(=O)CNC1=O [LXW62, cGRGDsdC] (H-[dC]GRGD[dS][dD]C-NH2; disulfide 1-8) |
| < 1 | N=C(N)NCCC[C@@H]1NC(=O)CNC(=O)[C@H](N)CSSC[C@H](C(N)=O)NC(=O)[C@@H](Cc2ccsc2)NC(=O)[C@@H](CC(=O)O)NC(=O)[C@H](CC(=O)O)NC(=O)CNC1=O [LXW66, cGRGDd-D3Thi-c] |
| < 1 | CC[C@H]1NC(=O)[C@@H](CC(=O)O)NC(=O)[C@H](CC(=O)O)NC(=O)CNC(=O)[C@H](CCCNC(=N)N)NC(=O)CNC(=O)[C@H](N)CSSC[C@H](C(N)=O)NC1=O [LXW25, cGRGDd-DAbu-c] |
| 1 to 10 | C#CC[C@H]1NC(=O)[C@@H](CC(=O)O)NC(=O)[C@H](CC(=O)O)NC(=O)CNC(=O)[C@H](CCCNC(=N)N)NC(=O)CNC(=O)[C@H](N)CSSC[C@@H](C(N)=O)NC1=O [LXW40, cGRGDd-DPra-C] |
| < 1 | N=C(N)NCCC[C@@H]1NC(=O)CNC(=O)[C@H](N)CSSC[C@H](C(N)=O)NC(=O)[C@@H](Cc2cccs2)NC(=O)[C@@H](CC(=O)O)NC(=O)[C@H](CC(=O)O)NC(=O)CNC1=O [LXW67, cGRGDd-D2Thi-c] |
| 1 to 10 | CC[C@@H](C)[C@H]1NC(=O)[C@@H](CC(=O)O)NC(=O)[C@H](CC(=O)O)NC(=O)CNC(=O)[C@H](CCCNC(=N)N)NC(=O)CNC(=O)[C@H](N)CSSC[C@H](C(N)=O)NC1=O [LXW26, cGRGDdic] (H-[dC]GRGD[dD][dI][dC]-NH2; disulfide 1-8) |
| > 10 | CC(C)[C@@]1(C)NC(=O)[C@@H](CC(=O)O)NC(=O)[C@H](CC(=O)O)NC(=O)CNC(=O)[C@H](CCCNC(=N)N)NC(=O)CNC(=O)[C@H](N)CSSC[C@H](C(N)=O)NC1=O [LXW23, cGRGDd-D(CaMe)Val-c] |
| 1 to 10 | CC(C)[C@H]1NC(=O)[C@@H](CC(=O)O)NC(=O)[C@H](CC(=O)O)NC(=O)CNC(=O)[C@H](CCCNC(=N)N)NC(=O)CCNC(=O)[C@H](N)CSSC[C@H](C(N)=O)NC1=O [LXW15, c-β-alanine-RGDdvc] (H-[dC][βAla]RGD[dD][dV][dC]-NH2; disulfide 1-8) |
| < 1 | CC(C)(C)[C@H]1NC(=O)[C@@H](CC(=O)O)NC(=O)[C@H](CC(=O)O)NC(=O)CNC(=O)[C@H](CCCNC(=N)N)NC(=O)CNC(=O)[C@H](N)CSSC[C@H](C(N)=O)NC1=O [LXW18, cGRGDd-DBug-c] |
